Test results: US5414008A, “Imidazolyl-substituted phenylpropionic and cinnamic acid derivatives” (Bayer Aktiengesellschaft, priority 1992, dated 1995)

Assays:
[1] = system: smooth muscle cells; assay: Inhibition of the proliferation of smooth muscle cells (3H-thymidine incorporation); assay type: cell-based; conditions: Sus scrofa, 10^-6 M, smooth muscle cells from pig aortas
Experimental: To determine the antiproliferative action of the compounds, smooth muscle cells are used which are obtained from aortas of pigs by the media explant technique [R.Ross, J. Cell. Biol. 50, 172, 1971]. The cells are inoculated into suitable culture dishes, as a rule 96-hole plates, and cultured in 5% CO2 at 37° C. for 2-3 days in medium 199 containing 7.5% FCS and 7.5% NCS, 2 mmol L-glutamine and 15 mmol HEPES, pH 7.4. The cells are then synchronised by withdrawal of serum for 2-3 days and then stimulated into growth with serum or other factors. Test compounds are simultaneously added. After 16-20 hours, 1 μCi ^3 H-thymidine is added and after a further 4 hours the incorporation of this substance into the TCA-precipitatable DNA of the cells is determined.
To determine the IC50 values, the active compound concentration is calculated which on sequential dilution of the active compound causes half-maximal inhibition of the thymidine incorporation produced by 1% FCS.

[2] = target: T1, angiotensin II receptor (Bos taurus, UniProt P25104); assay: Angiotensin II receptor binding (3H-angiotensin II) in membrane fractions of bovine adrenal gland cortex; conditions: bovine adrenal gland cortex membranes, 3H-angiotensin II 3-5 nM, 60 min, room temperature
T1 construct: Bovine adrenal gland cortices (AGC), which have been freshly removed and carefully freed from gland medulla; from tissue; host or cells: bovine adrenal gland cortex, partially purified membrane fractions
T1 sequence (P25104 1-359): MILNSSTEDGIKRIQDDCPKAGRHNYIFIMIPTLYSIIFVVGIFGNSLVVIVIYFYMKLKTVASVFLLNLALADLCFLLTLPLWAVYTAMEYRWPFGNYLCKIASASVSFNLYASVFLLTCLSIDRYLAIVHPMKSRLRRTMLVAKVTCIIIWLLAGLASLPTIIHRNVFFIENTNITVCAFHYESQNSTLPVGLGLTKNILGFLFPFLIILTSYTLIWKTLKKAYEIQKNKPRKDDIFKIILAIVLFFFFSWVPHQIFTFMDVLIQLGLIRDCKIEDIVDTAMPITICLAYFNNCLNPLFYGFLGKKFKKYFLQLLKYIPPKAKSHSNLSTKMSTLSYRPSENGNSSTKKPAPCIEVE
Experimental: Bovine adrenal gland cortices (AGC), which have been freshly removed and carefully freed from gland medulla, are comminuted in sucrose solution (0.32 M) with the aid of an Ultra-Turrax (Janke & Kunkel, Staufen i.B.) to give a coarse membrane homogenate and partially purified in two centrifugation steps to give membrane fractions. The receptor binding investigations are carried out on partially purified membrane fractions of bovine AGC using radioactive angiotensin II in an assay volume of 0.25 ml, which specifically contains the partially purified membranes (50-80 μg), ^3 H-angiotensin II .(3-5 nM), test buffer solution (50 mMTris, pH 7.2, 5 mM MgCl2) and the substances to be investigated. After an incubation time of 60 min at room temperature, the unbound radioactivity of the samples is separated by means of moistened glass fibre filters (Whatman GF/C) and the bound radioactivity is measured […] in a scintillation cocktail after washing the protein with ice-cold buffer solution (50 mM Tris/HCl, pH 7.4, 5% PEG 6000). The analysis of the raw data was carried out using computer programs to give Ki or IC50 values (Ki : IC50 values corrected for the radioactivity used; IC50 values: concentration at which the substance to be investigated causes a 50% inhibition of the specific binding of the radioligand).

[3] = system: isolated rabbit aorta rings, contraction induced by angiotensin II; assay: Inhibition of vascular contraction induced by angiotensin II (AII) in isolated rabbit aorta rings in vitro; conditions: based on 3rd = submaximal agonist concentration, read-out: IC50 against contractions induced by AII
Experimental: Rabbits of either sex are stunned by a blow to the back of the head and bled out, or in some cases anaesthetized with Nembutal (about 60-80 mg/kg i.v.) and sacrificed by opening the thorax. The thorax aorta is removed, freed from adhering connective tissue, divided into ring segments 1.5 mm wide and individually transferred under an initial loading of about 3.5 g to 10 ml organ baths containing Krebs-Henseleit nutrient solution, which is temperature-controlled at 37° C. and aerated with 95% 02/5 % CO2, of the following composition: 119 mmol/l of NaCl; 2.5mmol/l of CaCl2 ×2H2 O; 1.2 mmol/1 of KH2 PO4; 10mmol/l of glucose; 4.8 mmol/l of KCl; 1.4 mmol/l of MgSO4 ×H2 O and 25 mmol/1 of NaHCO3.
The contractions are detected isometrically by Statham UC2 cells by means of bridge amplifiers (ifd Milheim or DSM Aalen) and digitalised and assessed by means of A/D converters (System 570, Keithley Munich). Agonist dose response curves (DRC) are plotted hourly. With each DRC, 3 or 4 individual concentrations are applied to the baths at a 4 min interval. After the end of the DRC and subsequent washing-out cycles (16 times in each case about 5 sec/min with the abovementioned nutrient solution), a 28-minute rest or incubation phase follows, during which the contractions as a rule reach the staring value again.
The height of the 3rd DRC, in a normal case, is used as a reference variable for the assessment of the test substance to be investigated in further runs, which is applied to the baths in the following DRCs in increasing doses in each case at the start of the incubation period. Each aorta ring is in this case stimulated for the whole day, always with the same agonist.
For the calculation of the IC50 (concentration at which the substance to be investigated causes a 50% inhibition), the effect is in each case based on the 3rd =submaximal agonist concentration.

Ki [2] [nM] | IC50 [3] [nM] | Structure (SMILES) | inhibition at 1 µM [1] [%]
310 | 360 | CCCCc1nc(Cl)c(C=O)n1Cc1ccc(/C(=C/C(=O)O)c2ccccc2)cc1 [Example 31] | –
150 | – | CCCCc1nc(Cl)c(CO)n1Cc1ccc(C(CC(=O)O)c2ccccc2)cc1 (centres unmarked) [Example 36] | –
– | 650 | CCCCc1nc(Cl)c(C=O)n1Cc1ccc(C(CC(=O)O)c2ccccc2)cc1 (centres unmarked) [Example 35] | –
190 | – | CCCCc1nc(Cl)c(C=O)n1Cc1ccc(C(CC(=O)O)C2CCCC2)cc1 (centres unmarked) [Example 37] | –

The next lines start with the compound.

Structure (SMILES) | Ki [2] [nM] | IC50 [3] [nM] | inhibition at 1 µM [1] [%]
CCCCc1nc(Cl)c(C=O)n1Cc1ccc(/C(=C\C(=O)NS(=O)(=O)c2ccc(C)cc2)c2ccccc2)cc1 [Example 40] | – | – | 57
CCCCc1nc(Cl)c(C=O)n1Cc1ccc(/C(=C/C(=O)NS(=O)(=O)c2ccc(C)cc2)c2ccccc2)cc1 [Example 39] | – | – | 59
CCCCc1nc(Cl)c(CO)n1Cc1ccc(/C(=C\C(=O)O)c2ccccc2)cc1 [Example 30] | 340 | 580 | –
CCCCc1nc(Cl)c(CO)n1Cc1ccc(C(CC(=O)OC(C)(C)C)c2ccccc2)cc1 (centres unmarked) [Example 18] | – | – | 90
CCCCc1nc(Cl)c(CO)n1Cc1ccc(C(=CC(=O)NC(CO)c2ccccc2)c2ccccc2)cc1 (centres unmarked) [Example 20] | – | 360 | –
